Results from publication PMC5560747, “Computational-experimental approach to drug-target interaction mapping: A case study on kinase inhibitors” (PLoS Computational Biology, 2017).

Columns and labels:
[1] = target: T1, Aurora A (Homo sapiens, UniProt O14965); assay: ADP-Glo Kinase Assay, tivozanib off-target testing; type: biochemical; settings: read-out: Experimental validation pIC50 (converted)
T1 construct: purchased SignalChem A28-18G-10
T1 sequence (O14965 1-403): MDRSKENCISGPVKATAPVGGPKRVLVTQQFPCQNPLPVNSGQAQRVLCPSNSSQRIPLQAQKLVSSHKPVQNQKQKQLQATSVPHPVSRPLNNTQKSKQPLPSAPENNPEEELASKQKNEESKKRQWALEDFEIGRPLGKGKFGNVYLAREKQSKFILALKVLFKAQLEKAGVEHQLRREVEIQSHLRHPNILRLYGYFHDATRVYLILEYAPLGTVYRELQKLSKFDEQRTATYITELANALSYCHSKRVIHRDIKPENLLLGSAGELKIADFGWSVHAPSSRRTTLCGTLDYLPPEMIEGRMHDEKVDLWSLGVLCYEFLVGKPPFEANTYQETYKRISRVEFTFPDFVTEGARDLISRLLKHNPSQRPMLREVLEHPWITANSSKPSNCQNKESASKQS
Procedure: The kinase inhibitors were dissolved to 1X Kinase Buffer with 5% DMSO by transferring 200nL of the buffer using ECHO525 Liquid handler (Labcyte). […] The dissolved kinases and 2.5X kinase buffer controls were transferred at 400nL using ECHO525. […] The 2.5X ATP/substrate working stocks were transferred at 400nL using ECHO525.
For the ADP detection, 1 μl ADP-Glo reagent was dispensed (Thermo Scientific Multidrop Combi nL). […] Next, 2 μl kinase detection reagent was dispensed with Thermo Scientific Multidrop Combi nL.
Kinase assay, kinase dilution and substrate buffers were as indicated by the manufacturer (Promega). The assays were performed in the same way as with the kinases from the Kinase Selectivity Profiling System + ADP-Glo Assay kits (see previous section). All the assays were done in three individual experiments, each having three replicates.
IC50 values from all the experiments were obtained with GraphPad Prism 7 (GraphPad Software, Inc. California, USA) using inhibitor vs. response—variable slope (four parameters) analysis. […] X-axis scale was set to log10.

[2] = target: T2, RPS6KB1 (Homo sapiens, UniProt P23443); design: method as in Gao et al. [42]; settings: ref Gao et al. [42], cited from earlier work
T2 construct: purchased SignalChem R21-10H-10
T2 sequence (P23443 whole entry): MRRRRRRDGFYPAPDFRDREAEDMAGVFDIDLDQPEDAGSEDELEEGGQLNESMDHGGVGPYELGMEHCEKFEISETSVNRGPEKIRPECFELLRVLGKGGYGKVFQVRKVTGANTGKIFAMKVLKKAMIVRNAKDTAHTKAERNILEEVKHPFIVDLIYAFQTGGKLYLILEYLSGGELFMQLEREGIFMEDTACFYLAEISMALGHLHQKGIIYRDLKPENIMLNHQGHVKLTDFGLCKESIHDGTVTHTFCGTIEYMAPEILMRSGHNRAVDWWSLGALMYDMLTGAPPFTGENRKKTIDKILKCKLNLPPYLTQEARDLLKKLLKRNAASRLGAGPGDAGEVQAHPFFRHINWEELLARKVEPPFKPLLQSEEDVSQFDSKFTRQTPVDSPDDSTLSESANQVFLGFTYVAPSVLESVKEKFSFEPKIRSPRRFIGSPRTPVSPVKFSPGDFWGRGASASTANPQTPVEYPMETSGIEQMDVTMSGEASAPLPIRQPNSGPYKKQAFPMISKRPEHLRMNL

[3] = target: LCK (Homo sapiens, UniProt P06239); design: method as in Gao et al. [42]; settings: ref Gao et al. [42], cited from earlier work
LCK, sequence (P06239 whole entry): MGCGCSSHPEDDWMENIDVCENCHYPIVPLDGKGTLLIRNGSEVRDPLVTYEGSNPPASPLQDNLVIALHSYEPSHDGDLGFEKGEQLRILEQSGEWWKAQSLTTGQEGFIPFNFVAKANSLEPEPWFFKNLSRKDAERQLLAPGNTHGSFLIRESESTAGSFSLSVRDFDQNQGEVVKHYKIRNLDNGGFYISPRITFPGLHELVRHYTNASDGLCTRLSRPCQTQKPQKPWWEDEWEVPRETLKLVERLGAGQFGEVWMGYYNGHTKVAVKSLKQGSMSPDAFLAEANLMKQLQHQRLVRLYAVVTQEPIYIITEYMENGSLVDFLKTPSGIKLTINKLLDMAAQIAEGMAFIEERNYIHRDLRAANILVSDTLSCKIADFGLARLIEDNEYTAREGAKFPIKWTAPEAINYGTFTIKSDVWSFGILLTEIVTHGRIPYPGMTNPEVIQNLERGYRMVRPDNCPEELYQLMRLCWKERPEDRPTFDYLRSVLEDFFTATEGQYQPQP

[4] = target: LYN B (Homo sapiens, UniProt P07948); design: method as in Gao et al. [42]; settings: ref Gao et al. [42], cited from earlier work
LYN B, sequence (P07948 1-491 isoform P07948-2): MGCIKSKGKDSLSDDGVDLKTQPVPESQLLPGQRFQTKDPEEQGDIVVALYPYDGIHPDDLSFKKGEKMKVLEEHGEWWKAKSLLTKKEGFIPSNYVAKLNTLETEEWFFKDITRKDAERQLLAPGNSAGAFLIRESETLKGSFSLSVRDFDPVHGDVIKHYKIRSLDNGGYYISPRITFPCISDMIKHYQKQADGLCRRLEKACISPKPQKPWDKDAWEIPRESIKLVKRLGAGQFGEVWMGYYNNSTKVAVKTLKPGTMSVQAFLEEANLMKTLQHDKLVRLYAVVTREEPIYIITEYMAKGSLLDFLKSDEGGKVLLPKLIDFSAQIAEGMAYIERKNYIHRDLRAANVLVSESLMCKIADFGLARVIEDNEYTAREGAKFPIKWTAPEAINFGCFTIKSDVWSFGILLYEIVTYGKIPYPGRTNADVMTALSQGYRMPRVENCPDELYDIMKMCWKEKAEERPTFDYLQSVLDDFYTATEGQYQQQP

[5] = test system: Aurora B; design: method as in Gao et al. [42]; settings: ref Gao et al. [42], cited from earlier work
[6] = target: T1, Aurora A; design: method as in Gao et al. [42]; settings: ref Gao et al. [42], cited from earlier work
[7] = test system: FER; design: method as in Gao et al. [42]; settings: ref Gao et al. [42], cited from earlier work
[8] = test system: FGFR3; design: method as in Gao et al. [42]; settings: ref Gao et al. [42], cited from earlier work
[9] = test system: STK17A; design: method as in Gao et al. [42]; settings: ref Gao et al. [42], cited from earlier work
[10] = test system: TRKB; design: method as in Gao et al. [42]; settings: ref Gao et al. [42], cited from earlier work
[11] = test system: MINK1; design: method as in Gao et al. [42]; settings: ref Gao et al. [42], cited from earlier work
[12] = test system: PIM2; design: method as in Gao et al. [42]; settings: ref Gao et al. [42], cited from earlier work
[13] = test system: LIMK1; design: method as in Gao et al. [42]; settings: ref Gao et al. [42], cited from earlier work
[14] = test system: MAPK9; design: method as in Gao et al. [42]; settings: ref Gao et al. [42], cited from earlier work
[15] = test system: JAK2; design: method as in Gao et al. [42]; settings: ref Gao et al. [42], cited from earlier work
[16] = test system: RSK2; design: method as in Gao et al. [42]; settings: ref Gao et al. [42], cited from earlier work
[17] = test system: PRKD2; design: method as in Gao et al. [42]; settings: ref Gao et al. [42], cited from earlier work
[18] = test system: CAMK2D; design: method as in Gao et al. [42]; settings: ref Gao et al. [42], cited from earlier work
[19] = test system: CHK1; design: method as in Gao et al. [42]; settings: ref Gao et al. [42], cited from earlier work
[20] = test system: CAMK2g; design: method as in Gao et al. [42]; settings: ref Gao et al. [42], cited from earlier work
[21] = target: BTK (Homo sapiens, UniProt Q06187); design: method as in Gao et al. [42]; settings: ref Gao et al. [42], cited from earlier work
BTK, sequence (Q06187 whole entry): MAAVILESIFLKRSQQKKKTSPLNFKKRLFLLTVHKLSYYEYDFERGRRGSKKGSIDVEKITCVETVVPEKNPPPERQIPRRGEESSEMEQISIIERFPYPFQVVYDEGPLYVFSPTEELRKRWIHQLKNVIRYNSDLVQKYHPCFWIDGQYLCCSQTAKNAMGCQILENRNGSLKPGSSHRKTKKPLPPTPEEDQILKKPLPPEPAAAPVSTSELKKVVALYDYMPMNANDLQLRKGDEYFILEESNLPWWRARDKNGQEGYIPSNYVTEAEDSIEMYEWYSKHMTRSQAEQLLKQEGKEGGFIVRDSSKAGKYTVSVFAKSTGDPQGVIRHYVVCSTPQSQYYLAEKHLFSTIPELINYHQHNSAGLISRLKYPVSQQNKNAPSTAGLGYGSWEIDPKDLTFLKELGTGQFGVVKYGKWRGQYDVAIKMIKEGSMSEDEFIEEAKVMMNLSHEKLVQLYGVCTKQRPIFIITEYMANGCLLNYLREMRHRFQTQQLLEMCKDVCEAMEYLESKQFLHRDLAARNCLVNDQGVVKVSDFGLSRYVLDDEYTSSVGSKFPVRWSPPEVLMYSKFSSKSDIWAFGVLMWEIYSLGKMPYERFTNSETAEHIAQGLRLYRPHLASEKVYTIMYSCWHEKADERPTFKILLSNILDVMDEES

[22] = test system: PHKG2; design: method as in Gao et al. [42]; settings: ref Gao et al. [42], cited from earlier work
[23] = test system: EEF2K; design: method as in Gao et al. [42]; settings: ref Gao et al. [42], cited from earlier work
[24] = test system: CDK5/p25; design: method as in Gao et al. [42]; settings: ref Gao et al. [42], cited from earlier work
[25] = test system: NEK2; design: method as in Gao et al. [42]; settings: ref Gao et al. [42], cited from earlier work
[26] = test system: BRSK1; design: method as in Gao et al. [42]; settings: ref Gao et al. [42], cited from earlier work
[27] = test system: SRPK1; design: method as in Gao et al. [42]; settings: ref Gao et al. [42], cited from earlier work
[28] = test system: CDK1; design: method as in Gao et al. [42]; settings: ref Gao et al. [42], cited from earlier work
[29] = test system: AKT3; design: method as in Gao et al. [42]; settings: ref Gao et al. [42], cited from earlier work

**Q.** For `COc1cc2nccc(Oc3ccc(NC(=O)Nc4cc(C)on4)c(Cl)c3)c2cc1OC` [TIVOZANIB, Tivozanib], which IC50 [1] is on record?
**A.** > 12.5 µM

**Q.** And the “Gao et al. % of activity remaining at 1 µM” value ([2]; 1 µM)?
**A.** 76%

**Q.** And the “Gao et al. % of activity remaining at 10 µM” value ([2]; 10 µM)?
**A.** 53%

**Q.** And the “Gao et al. % of activity remaining at 1 µM” value ([3]; 1 µM)?
**A.** -2%

**Q.** What about the “Gao et al. % of activity remaining at 10 µM” value ([3]; 10 µM) of the same compound?
**A.** 1%

**Q.** What about the “Gao et al. % of activity remaining at 1 µM” value ([4]; 1 µM) of the same compound?
**A.** -1%

**Q.** What about the “Gao et al. % of activity remaining at 10 µM” value ([4]; 10 µM) of the same compound?
**A.** 2%

**Q.** And the “Gao et al. % of activity remaining at 1 µM” value ([5]; 1 µM)?
**A.** 3%

**Q.** And the “Gao et al. % of activity remaining at 10 µM” value ([5]; 10 µM)?
**A.** 1%

**Q.** What about the “Gao et al. % of activity remaining at 1 µM” value ([6]; 1 µM) of the same compound?
**A.** 7%

**Q.** What about the “Gao et al. % of activity remaining at 10 µM” value ([6]; 10 µM) of the same compound?
**A.** 7%

**Q.** What about the “Gao et al. % of activity remaining at 1 µM” value ([7]; 1 µM) of the same compound?
**A.** 87%

**Q.** What about the “Gao et al. % of activity remaining at 10 µM” value ([7]; 10 µM) of the same compound?
**A.** 16%

**Q.** What about the “Gao et al. % of activity remaining at 1 µM” value ([8]; 1 µM) of the same compound?
**A.** 59%

**Q.** What about the “Gao et al. % of activity remaining at 10 µM” value ([8]; 10 µM) of the same compound?
**A.** 28%

**Q.** And the “Gao et al. % of activity remaining at 1 µM” value ([9]; 1 µM)?
**A.** 116%

**Q.** What about the “Gao et al. % of activity remaining at 10 µM” value ([9]; 10 µM) of the same compound?
**A.** 87%

**Q.** What about the “Gao et al. % of activity remaining at 1 µM” value ([10]; 1 µM) of the same compound?
**A.** 42%

**Q.** What about the “Gao et al. % of activity remaining at 10 µM” value ([10]; 10 µM) of the same compound?
**A.** -10%

**Q.** What about the “Gao et al. % of activity remaining at 1 µM” value ([11]; 1 µM) of the same compound?
**A.** 71%

**Q.** And the “Gao et al. % of activity remaining at 10 µM” value ([11]; 10 µM)?
**A.** 21%

**Q.** And the “Gao et al. % of activity remaining at 1 µM” value ([12]; 1 µM)?
**A.** 114%

**Q.** And the “Gao et al. % of activity remaining at 10 µM” value ([12]; 10 µM)?
**A.** 103%

**Q.** What about the “Gao et al. % of activity remaining at 1 µM” value ([13]; 1 µM) of the same compound?
**A.** 67%

**Q.** And the “Gao et al. % of activity remaining at 10 µM” value ([13]; 10 µM)?
**A.** 14%

**Q.** And the “Gao et al. % of activity remaining at 1 µM” value ([14]; 1 µM)?
**A.** 104%

**Q.** What about the “Gao et al. % of activity remaining at 10 µM” value ([14]; 10 µM) of the same compound?
**A.** 88%

**Q.** And the “Gao et al. % of activity remaining at 1 µM” value ([15]; 1 µM)?
**A.** 114%

**Q.** What about the “Gao et al. % of activity remaining at 10 µM” value ([15]; 10 µM) of the same compound?
**A.** 114%

**Q.** And the “Gao et al. % of activity remaining at 1 µM” value ([16]; 1 µM)?
**A.** 60%

**Q.** What about the “Gao et al. % of activity remaining at 10 µM” value ([16]; 10 µM) of the same compound?
**A.** 35%

**Q.** And the “Gao et al. % of activity remaining at 1 µM” value ([17]; 1 µM)?
**A.** 95%

**Q.** And the “Gao et al. % of activity remaining at 10 µM” value ([17]; 10 µM)?
**A.** 103%

**Q.** What about the “Gao et al. % of activity remaining at 1 µM” value ([18]; 1 µM) of the same compound?
**A.** 102%

**Q.** And the “Gao et al. % of activity remaining at 10 µM” value ([18]; 10 µM)?
**A.** 90%

**Q.** What about the “Gao et al. % of activity remaining at 1 µM” value ([19]; 1 µM) of the same compound?
**A.** 89%

**Q.** What about the “Gao et al. % of activity remaining at 10 µM” value ([19]; 10 µM) of the same compound?
**A.** 100%

**Q.** What about the “Gao et al. % of activity remaining at 1 µM” value ([20]; 1 µM) of the same compound?
**A.** 108%

**Q.** What about the “Gao et al. % of activity remaining at 10 µM” value ([20]; 10 µM) of the same compound?
**A.** 70%

**Q.** What about the “Gao et al. % of activity remaining at 1 µM” value ([21]; 1 µM) of the same compound?
**A.** 50%

**Q.** And the “Gao et al. % of activity remaining at 10 µM” value ([21]; 10 µM)?
**A.** 10%

**Q.** And the “Gao et al. % of activity remaining at 1 µM” value ([22]; 1 µM)?
**A.** 95%

**Q.** And the “Gao et al. % of activity remaining at 10 µM” value ([22]; 10 µM)?
**A.** 66%

**Q.** What about the “Gao et al. % of activity remaining at 1 µM” value ([23]; 1 µM) of the same compound?
**A.** 84%

**Q.** What about the “Gao et al. % of activity remaining at 10 µM” value ([23]; 10 µM) of the same compound?
**A.** 116%

**Q.** What about the “Gao et al. % of activity remaining at 1 µM” value ([24]; 1 µM) of the same compound?
**A.** 90%

**Q.** What about the “Gao et al. % of activity remaining at 10 µM” value ([24]; 10 µM) of the same compound?
**A.** 95%

**Q.** What about the “Gao et al. % of activity remaining at 1 µM” value ([25]; 1 µM) of the same compound?
**A.** 88%

**Q.** And the “Gao et al. % of activity remaining at 10 µM” value ([25]; 10 µM)?
**A.** 100%

**Q.** What about the “Gao et al. % of activity remaining at 1 µM” value ([26]; 1 µM) of the same compound?
**A.** 65%

**Q.** What about the “Gao et al. % of activity remaining at 10 µM” value ([26]; 10 µM) of the same compound?
**A.** 46%

**Q.** And the “Gao et al. % of activity remaining at 1 µM” value ([27]; 1 µM)?
**A.** 98%

**Q.** What about the “Gao et al. % of activity remaining at 10 µM” value ([27]; 10 µM) of the same compound?
**A.** 90%

**Q.** What about the “Gao et al. % of activity remaining at 1 µM” value ([28]; 1 µM) of the same compound?
**A.** 100%

**Q.** What about the “Gao et al. % of activity remaining at 10 µM” value ([28]; 10 µM) of the same compound?
**A.** 94%

**Q.** And the “Gao et al. % of activity remaining at 1 µM” value ([29]; 1 µM)?
**A.** 95%

**Q.** What about the “Gao et al. % of activity remaining at 10 µM” value ([29]; 10 µM) of the same compound?
**A.** 89%
